Test results reported in patent publication US5523315A, “N-(hydroxyethyl)butanediamide derivatives” (Bio-Mega/Boehringer Ingelheim Research Inc., priority 1993, dated 1996).
pIC50: −log10 of the molar value.

target: T1, human renin (Homo sapiens, UniProt P00797); test: plasma renin assay (inhibition of human renin; angiotensin I generated, measured by radioimmunoassay); type: biochemical; conditions: human plasma pool, pH 6.0, 2 h incubation at 37°
T1 construct: A human plasma pool is used as the source of both the substrate (angiotensinogen) and the enzyme (renin); from tissue; host or cells: pooled human plasma
T1 sequence (P00797 67-406): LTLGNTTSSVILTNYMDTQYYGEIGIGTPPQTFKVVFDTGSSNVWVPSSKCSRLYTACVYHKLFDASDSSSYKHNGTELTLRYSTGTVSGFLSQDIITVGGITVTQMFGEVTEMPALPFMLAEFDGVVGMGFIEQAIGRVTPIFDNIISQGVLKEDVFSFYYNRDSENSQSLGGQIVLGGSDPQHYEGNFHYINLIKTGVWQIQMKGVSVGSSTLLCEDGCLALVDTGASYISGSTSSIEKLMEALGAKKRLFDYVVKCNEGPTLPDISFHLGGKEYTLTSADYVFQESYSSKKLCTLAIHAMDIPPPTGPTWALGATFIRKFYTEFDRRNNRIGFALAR
In short: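 Pooled human plasma supplies both renin and angiotensinogen; inhibitor in MES/1% HSA buffer (1% DMSO final) incubated 2 h at 37° at pH 6.0. Angiotensin I generated quantified by radioimmunoassay, inhibition relative to no-inhibitor control, IC50 by nonlinear regression.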

Row | pIC50 | Compound
1 | 8.70 | CC(C)C[C@H](O)[C@H](O)[C@H](CC1CCCCC1)NC(=O)[C@@H](CC(=O)N(CC(=O)N(C)CCc1ccccn1)CC1(O)CCCCC1)Cc1csc(N)n1 [Compound 49, N^4-[(1-hydroxycyclohexyl)methyl]-N^4 -{2-{methyl[2-(2-pyridinyl)ethyl]amino}-2-oxoethyl}-N^1-[1(S)-(cyclohexylmethyl)-2(R),3(S)-dihydroxy-5-methylhexyl]-2(R)-[(2-amino-4-thiazolyl)methyl]butanediamide]
2 | 7.89 | CC(C)C[C@H](O)[C@H](O)[C@H](CC1CCCCC1)NC(=O)[C@@H](CC(=O)N(CC1CCCC1)CC(C)(C)O)Cc1cscn1 [Compound 50, N^4-(cyclopentylmethyl)-N^4-(2-hydroxy-2-methylpropyl)-N^1-[1(S)-(cyclohexylmethyl)-2(R),3(S)-dihydroxy-5-methylhexyl]-2(R)-(4-thiazolylmethyl)butanediamide]
3 | 8.30 | CC(C)C[C@H](O)[C@H](O)[C@H](CC1CCCCC1)NC(=O)[C@@H](CC(=O)N(CC1CCCCCC1)CC(C)(C)O)Cc1cscn1 [Compound 51, N^4-(cycloheptylmethyl)-N^4-(2-hydroxy-2-methylpropyl)-N^1-[1(S)-(cyclohexylmethyl)-2(R),3(S)-dihydroxy-5-methylhexyl]-2(R)-(4-thiazolylmethyl)butanediamide]
4 | 7.48 | CC(C)C[C@H](O)[C@H](O)[C@H](CC1CCCCC1)NC(=O)[C@@H](CC(=O)N(CC(=O)N(C)C)CC1(O)CCCCC1)Cc1cccnc1 [Compound 52, N^4-[(1-hydroxycyclohexyl)methyl]-N^4-[2-(dimethylamino)-2-oxoethyl]-N^1-[1(S)-(cyclohexylmethyl)-2(R),3(S)-dihydroxy-5-methylhexyl]-2(R)-(3-pyridinylmethyl)butanediamide]
5 | 8.70 | CC(C)C[C@H](O)[C@H](O)[C@H](CC1CCCCC1)NC(=O)[C@@H](CC(=O)N(CC(=O)N(C)C)CC1(O)CCCCCC1)Cc1csc(N)n1 [Compound 53, N^4-[(1-hydroxycycloheptyl)methyl]-N^4-[2-(dimethylamino)-2-oxoethyl]-N^1-[1(S)-(cyclohexylmethyl)-2(R),3(S)-dihydroxy-5-methylhexyl]-2(R)-[(2-amino-4-thiazolyl)methyl]-butanediamide]
6 | 7.59 | CC(C)C[C@H](O)[C@H](O)[C@H](CC1CCCCC1)NC(=O)[C@@H](CC(=O)N(Cc1ccccc1)CC(C)(C)O)Cc1csc(N)n1 [Compound 54, N^4-benzyl-N^4-(2-hydroxy-2-methylpropyl)-N^1-[1(S)-(cyclohexylmethyl)-2(R),3(S)-dihydroxy-5-methylhexyl]-2(R)-[(2-amino-4-thiazolyl)methyl]-butanediamide]
7 | 7.68 | CC(C)C[C@H](O)[C@H](O)[C@H](CC1CCCCC1)NC(=O)[C@@H](CC(=O)N(Cc1ccco1)CC(C)(C)O)Cc1csc(N)n1 [Compound 55, N^4-(2-furanylmethyl)-N^4-(2-hydroxy-2-methylpropyl)-N^1-[1(S)-(cyclohexylmethyl)-2(R),3(S)-dihydroxy-5-methylhexyl]-2(R)-[(2-amino-4-thiazolyl)methyl]butanediamide]
8 | 9.00 | CC(C)C[C@H](O)[C@H](O)[C@H](CC1CCCCC1)NC(=O)[C@@H](CC(=O)N(CC(=O)N(C)C)CC1(O)CCCCCCC1)Cc1csc(N)n1 [Compound 56, N^4-[(1-hydroxycyclooctyl)methyl]-N^4-[2-(dimethylamino)-2-oxoethyl]-N^1-[1(S)-(cyclohexylmethyl)-2(R),3(S)-dihydroxy-5-methylhexyl]-2(R)-[(2-amino-4-thiazolyl)methyl]butanediamide]
9 | 7.43 | Cc1ccccc1CN(CC(C)(C)O)C(=O)C[C@@H](Cc1csc(N)n1)C(=O)N[C@@H](CC1CCCCC1)[C@@H](O)[C@@H](O)CC(C)C [Compound 57, N^4-[(2-methylphenyl)methyl]-N^4-(2-hydroxy-2-methylpropyl)-N^1-[1(S)-(cyclohexylmethyl)-2(R),3(S)-dihydroxy-5-methylhexyl]-2(R)-[(2-amino-4-thiazolyl)methyl]butanediamide]
10 | 7.82 | CCC(CC)CN(CC(C)(C)O)C(=O)C[C@@H](Cc1csc(N)n1)C(=O)N[C@@H](CC1CCCCC1)[C@@H](O)[C@@H](O)CC(C)C [Compound 58, N^4-(2-ethylbutyl)-N^4-(2-hydroxy-2-methylpropyl)-N^1-[1(S)-(cyclohexylmethyl)-2(R),3(S)-dihydroxy-5-methylhexyl]-2(R)-[(2-amino-4-thiazolyl)methyl]butanediamide]
11 | 8.82 | CC(C)C[C@H](O)[C@H](O)[C@H](CC1CCCCC1)NC(=O)[C@@H](CC(=O)N(CC(=O)N(C)CCc1ccccn1)CC1(O)CCCCCC1)Cc1csc(N)n1 [Compound 59, N^4-[(1-hydroxycycloheptyl)methyl]-N^4 -{2-{methyl[2-(2-pyridinyl)ethyl]amino}-2-oxoethyl}-N^1-[1(S)-(cyclohexylmethyl)-2(R),3(S)-dihydroxy-5-methylhexyl]-2(R)-[(2-amino-4-thiazolyl)methyl]butanediamide]
12 | 8.70 | CC(=O)CN(CC1CCCCC1)C(=O)C[C@@H](Cc1cscn1)C(=O)N[C@@H](CC1CCCCC1)[C@@H](O)[C@@H](O)CC(C)C [Compound 60, N^4-(cyclohexylmethyl)-N^4-(2-oxopropyl)-N^1-[1(S)-(cyclohexylmethyl)-2(R),3(S)-dihydroxy-5-methylhexyl]-2(R)-(4-thiazolylmethyl)butanediamide]
13 | 8.05 | CC(C)C[C@H](O)[C@H](O)[C@H](CC1CCCCC1)NC(=O)[C@@H](CC(=O)N(CC(=O)C(C)C)CC1CCCCC1)Cc1cscn1 [Compound 61, N^4-(cyclohexylmethyl)-N^4-(3-methyl-2-oxobutyl)-N^1-[1(S)-(cyclohexylmethyl)-2(R),3(S)-dihydroxy-5-methylhexyl]-2(R)-(4-thiazolylmethyl)butanediamide]
14 | 8.70 | COC1(CN(CC(=O)N(C)CCc2ccccn2)C(=O)C[C@@H](Cc2csc(N)n2)C(=O)N[C@@H](CC2CCCCC2)[C@@H](O)[C@@H](O)CC(C)C)CCCCC1 [Compound 62, N^4-[(1-methoxycyclohexyl)methyl]-N^4 -{2-{methyl[2-(2-pyridinyl)ethyl]amino}-2-oxoethyl}-N^1-[1(S)-(cyclohexylmethyl)-2(R),3(S)-dihydroxy-5-methylhexyl]-2(R)-[(2-amino-4-thiazolyl)methyl]butanediamide]
15 | 8.30 | CC(C)C[C@H](O)[C@H](O)[C@H](CC1CCCCC1)NC(=O)[C@@H](CC(=O)N(CC(=O)C(C)C)CC1CCCCC1)Cc1csc(N)n1 [Compound 63, N^4-(cyclohexylmethyl)-N^4-(3-methyl-2-oxobutyl)-N^1-[1(S)-(cyclohexylmethyl)-2(R),3(S)-dihydroxy-5-methylhexyl]-2(R)-[(2-amino-4-thiazolyl)methyl]butanediamide]
